Test results as given in ChEMBL document CHEMBL4130624, “Optimization of 1,4-Oxazine β-Secretase 1 (BACE1) Inhibitors Toward a Clinical Candidate” (J Med Chem, 2018).
pIC50: −log10 of the molar value. The source made the active and inactive calls. No cut-off for these calls is given here.

Legend:
[1] = molecular target: Cytochrome P450 3A4 (Homo sapiens, UniProt P08684); assay: Reversible inhibition of recombinant human CYP3A4 by fluorescence-based assay; assay type: ADME
[2] = system: Cavia porcellus; assay: Cardiotoxicity in anesthetized guinea pigs assessed as drug level causing QTcB prolongation dosed up to 10 mg/kg, iv administered over a period of 5 min at 15 min interval by ECG analysis; assay type: toxicity, organism-based; settings: guinea pig, in vivo
[3] = Cmax in male Sprague-Dawley rat at 75 mg/kg, po measured after 1 month repeated dosing by LC-MS/MS analysis; assay type: ADME, organism-based; parameters: dose 75 mg/kg, route oral; settings: in vivo
[4] = system: Canis familiaris; assay: Toxicity in Beagle dog assessed as induction of behavioural changes at 0.63 to 20 mg/kg, po qd for 1 day; assay type: organism-based, Canis lupus familiaris; settings: in vivo, 24 h
[5] = system: Cavia porcellus; assay: Cardiotoxicity in anesthetized guinea pigs assessed as QTcB prolongation at plasma concentration of 11500 ng/ml dosed up to 10 mg/kg, iv administered over a period of 5 min at 15 min interval by ECG analysis (reference value: 7%); assay type: toxicity, organism-based; settings: guinea pig, in vivo
[6] = system: TK6; assay: Genotoxicity in human TK6 cells at 188 ug/ml after 4 hrs in presence of rat liver S9 fraction by micronucleus assay; assay type: toxicity, cell-based; settings: s9, 4 h
[7] = system: Rattus norvegicus; assay: Toxicity in Sprague-Dawley rat assessed as induction of tissue damage at 225 mg/kg/day, po administered via gavage for 1 month; assay type: organism-based; settings: in vivo
[8] = Cmax in female Beagle dog at 70 mg/kg, po measured after 1 month repeated dosing by LC-MS/MS analysis; settings: in vivo
[9] = Cmax in Swiss mouse at 10 mg/kg, po administered as bolus dose by LC-MS/MS analysis; assay type: ADME, organism-based; parameters: dose 10 mg/kg, route oral; settings: in vivo
[10] = molecular target: Cytochrome P450 2C9 (Homo sapiens, UniProt P11712); assay: Reversible inhibition of recombinant human CYP2C9 by fluorescence-based assay; assay type: ADME
Chain of Cytochrome P450 2C9 (P11712 whole entry): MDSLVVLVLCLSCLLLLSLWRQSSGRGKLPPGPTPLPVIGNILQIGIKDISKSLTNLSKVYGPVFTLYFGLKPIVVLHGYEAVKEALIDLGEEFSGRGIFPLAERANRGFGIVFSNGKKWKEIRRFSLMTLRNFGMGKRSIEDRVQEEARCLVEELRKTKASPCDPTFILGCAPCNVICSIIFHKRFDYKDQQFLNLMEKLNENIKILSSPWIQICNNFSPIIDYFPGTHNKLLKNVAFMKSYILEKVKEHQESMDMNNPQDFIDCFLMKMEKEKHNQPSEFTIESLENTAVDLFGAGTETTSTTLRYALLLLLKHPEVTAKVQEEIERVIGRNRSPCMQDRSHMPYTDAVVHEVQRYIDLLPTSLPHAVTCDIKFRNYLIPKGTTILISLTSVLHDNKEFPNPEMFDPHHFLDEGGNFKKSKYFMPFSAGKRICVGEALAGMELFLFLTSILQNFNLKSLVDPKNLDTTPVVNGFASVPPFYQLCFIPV

[11] = system: Canis familiaris; assay: Toxicity in Beagle dog assessed as induction of behavioural changes at 0.63 to 20 mg/kg, po qd for 6 days; assay type: organism-based, Canis lupus familiaris; settings: in vivo, 144 h
[12] = Drug metabolism in mouse liver microsomes at 1 uM after 15 mins in presence of NADPH by HPLC-MS/MS analysis; assay type: ADME, microsome; settings: read-out: Drug metabolism
[13] = species: Homo sapiens; assay: Selectivity for BACE1 (unknown origin) over BACE2 (unknown origin)
[14] = system: Rattus norvegicus; assay: Toxicity in Sprague-Dawley rat assessed as phospholipidosis at 225 mg/kg/day, po administered via gavage for 1 month followed by 1 month recovery period; assay type: organism-based; settings: in vivo
[15] = system: Salmonella typhimurium; assay: Mutagenicity in Salmonella typhimurium TA98 up to 500 ug/ml in absence of rat liver S9 fraction by Ames 2 assay; assay type: toxicity, organism-based; settings: salmonella enterica subsp. enterica serovar typhimurium
[16] = system: Mus musculus; assay: Systemic clearance in Swiss mouse at 2.5 mg/kg, iv administered as bolus dose by LC-MS/MS analysis relative to liver blood flow; assay type: ADME, organism-based; settings: in vivo
[17] = system: Rattus norvegicus; assay: Toxicity in female Sprague-Dawley rat assessed as increase in formation of foamy macrophages in lungs at 75 mg/kg/day, po administered via gavage for 1 month; assay type: organism-based; settings: in vivo
[18] = Cmax in male Beagle dog at 70 mg/kg, po measured after 1 month repeated dosing by LC-MS/MS analysis; settings: in vivo
[19] = system: Salmonella typhimurium; assay: Mutagenicity in Salmonella typhimurium TA98 up to 500 ug/ml in presence of rat liver S9 fraction by Ames 2 assay; assay type: toxicity, organism-based; settings: salmonella enterica subsp. enterica serovar typhimurium
[20] = Fraction unbound in rat brain at 5 uM after 5 hrs by HPLC-MS/MS method based rapid equilibrium dialysis; assay type: ADME, tissue-based
[21] = system: Canis familiaris; assay: Toxicity in male beagle dog at 20 to 250 mg/kg/day, po qd for 1 month followed by 1 month recovery period; assay type: organism-based, Canis lupus familiaris; settings: in vivo
[22] = system: Canis familiaris; assay: Antialzheimer activity in po dosed Beagle dog assessed as reduction in CSF amyloid beta (1 to 42) levels measured after 49 hrs post dose by MesoScale electrochemiluminescence; settings: Canis lupus familiaris
[23] = system: Rattus norvegicus; assay: Toxicity in Sprague-Dawley rat assessed as induction of pigmentation at 225 mg/kg/day, po administered via gavage for 1 month; assay type: organism-based; settings: in vivo
[24] = system: Canis familiaris; assay: Half life in Beagle dog at 1 mg/kg, iv administered as bolus dose by LC-MS/MS analysis; assay type: ADME, organism-based, Canis lupus familiaris; settings: in vivo
[25] = (§1) Safety index, ratio of NOAEL for cardiotoxicity in anesthetized guinea pigs assessed as total drug level causing QTcB prolongation dosed up to 10 mg/kg, iv administered over a period of 5 min at 15 mins interval by ECG analysis to EC50 for Antialzheimer activity in po dosed Beagle dog assessed as reduction in amyloid beta (1 to 40) levels measured after 1 hr post dose by ELISA; assay type: toxicity, organism-based; settings: guinea pig, in vivo
[26] = Cmax in female Sprague-Dawley rat at 75 mg/kg, po measured after 1 month repeated dosing by LC-MS/MS analysis; assay type: ADME, organism-based; parameters: dose 75 mg/kg, route oral; settings: in vivo
[27] = Clearance in Sprague-Dawley rat at 2.5 mg/kg, iv administered as bolus dose by LC-MS/MS analysis; assay type: ADME, organism-based; settings: in vivo
[28] = Toxicity in male beagle dog at 20 to 250 mg/kg/day, po qd for 1 month; assay type: organism-based, Canis lupus familiaris; settings: in vivo
[29] = system: Rattus norvegicus; assay: Toxicity in Sprague-Dawley rat assessed as drug tolerability at 25 to 75 mg/kg/day, po measured after 1 month repeated dosing; assay type: organism-based; settings: in vivo
[30] = AUC (0 to 24 hrs) in female Beagle dog at 70 mg/kg, po measured after 1 month repeated dosing by LC-MS/MS analysis; settings: in vivo
[31] = system: Canis familiaris; assay: Systemic clearance in Beagle dog at 1 mg/kg, iv administered as bolus dose by LC-MS/MS analysis relative to liver blood flow; assay type: ADME, organism-based, Canis lupus familiaris; settings: in vivo
[32] = as §1, with “free” for “total”; assay type: toxicity, organism-based; settings: guinea pig, in vivo
[33] = molecular target: hERG (KCNH2) (Homo sapiens, UniProt Q12809); assay: Inhibition of human ERG expressed in HEK293 cells assessed as reduction in outward potassium current at 3 uM at holding potential was -80 mV after 5 mins by patch clamp assay; assay type: cell-based; settings: HEK293 cells that express hERG
Chain of hERG (KCNH2) (Q12809 whole entry): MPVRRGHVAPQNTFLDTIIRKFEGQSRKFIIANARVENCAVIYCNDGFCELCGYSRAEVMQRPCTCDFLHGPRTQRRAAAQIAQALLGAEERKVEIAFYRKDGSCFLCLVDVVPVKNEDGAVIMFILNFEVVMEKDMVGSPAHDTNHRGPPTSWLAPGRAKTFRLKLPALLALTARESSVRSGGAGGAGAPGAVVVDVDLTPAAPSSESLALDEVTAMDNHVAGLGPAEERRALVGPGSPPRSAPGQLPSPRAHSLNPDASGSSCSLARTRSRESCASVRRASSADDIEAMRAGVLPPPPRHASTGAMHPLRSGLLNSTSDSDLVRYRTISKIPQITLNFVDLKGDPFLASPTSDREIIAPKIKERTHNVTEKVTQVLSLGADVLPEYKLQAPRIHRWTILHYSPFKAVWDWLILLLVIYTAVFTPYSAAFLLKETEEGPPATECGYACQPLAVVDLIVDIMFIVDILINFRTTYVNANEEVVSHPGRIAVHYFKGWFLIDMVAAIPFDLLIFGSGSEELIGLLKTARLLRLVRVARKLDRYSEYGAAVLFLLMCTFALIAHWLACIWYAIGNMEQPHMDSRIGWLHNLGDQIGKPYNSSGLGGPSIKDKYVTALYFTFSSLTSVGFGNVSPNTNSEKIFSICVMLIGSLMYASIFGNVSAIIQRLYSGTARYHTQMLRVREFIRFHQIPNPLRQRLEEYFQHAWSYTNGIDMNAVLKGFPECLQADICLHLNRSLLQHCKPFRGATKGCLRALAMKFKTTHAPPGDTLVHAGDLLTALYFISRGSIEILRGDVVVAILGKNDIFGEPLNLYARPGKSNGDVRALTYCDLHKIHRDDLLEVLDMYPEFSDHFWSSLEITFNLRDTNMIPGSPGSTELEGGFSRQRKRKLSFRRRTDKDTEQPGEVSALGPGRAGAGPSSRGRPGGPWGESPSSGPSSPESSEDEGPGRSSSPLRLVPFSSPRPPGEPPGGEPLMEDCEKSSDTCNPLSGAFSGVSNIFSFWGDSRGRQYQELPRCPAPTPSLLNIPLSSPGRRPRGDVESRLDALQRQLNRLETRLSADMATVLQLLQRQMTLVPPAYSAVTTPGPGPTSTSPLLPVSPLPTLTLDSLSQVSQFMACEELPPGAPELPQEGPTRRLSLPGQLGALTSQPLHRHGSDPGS

[34] = Cmax in Beagle dog at 10 mg/kg, po administered as bolus dose by LC-MS/MS analysis; assay type: ADME, organism-based, Canis lupus familiaris; parameters: dose 10 mg/kg, route oral; settings: in vivo
[35] = system: Rattus norvegicus; assay: Toxicity in Sprague-Dawley rat assessed as effect on body weight at 225 mg/kg/day, po administered via gavage for 1 month; assay type: organism-based; settings: in vivo
[36] = Clearance in Swiss mouse at 2.5 mg/kg, iv administered as bolus dose by LC-MS/MS analysis; assay type: ADME, organism-based; settings: in vivo
[37] = Fraction unbound in rat plasma at 5 uM after 4.5 hrs by HPLC-MS/MS method based rapid equilibrium dialysis; assay type: ADME, cell-free
[38] = Ratio of drug level in lung to plasma of Sprague-Dawley rat at 10 mg/kg, po; assay type: ADME, organism-based
[39] = molecular target: Beta-secretase 1 (Homo sapiens, UniProt P56817); assay: Inhibition of BACE1 (1 to 454 residues) (unknown origin) using APP derived polypeptide harboring Lys-Met/Asn-Leu mutation as substrate by FRET assay
Chain of Beta-secretase 1 (P56817 whole entry, the tested form may be a part): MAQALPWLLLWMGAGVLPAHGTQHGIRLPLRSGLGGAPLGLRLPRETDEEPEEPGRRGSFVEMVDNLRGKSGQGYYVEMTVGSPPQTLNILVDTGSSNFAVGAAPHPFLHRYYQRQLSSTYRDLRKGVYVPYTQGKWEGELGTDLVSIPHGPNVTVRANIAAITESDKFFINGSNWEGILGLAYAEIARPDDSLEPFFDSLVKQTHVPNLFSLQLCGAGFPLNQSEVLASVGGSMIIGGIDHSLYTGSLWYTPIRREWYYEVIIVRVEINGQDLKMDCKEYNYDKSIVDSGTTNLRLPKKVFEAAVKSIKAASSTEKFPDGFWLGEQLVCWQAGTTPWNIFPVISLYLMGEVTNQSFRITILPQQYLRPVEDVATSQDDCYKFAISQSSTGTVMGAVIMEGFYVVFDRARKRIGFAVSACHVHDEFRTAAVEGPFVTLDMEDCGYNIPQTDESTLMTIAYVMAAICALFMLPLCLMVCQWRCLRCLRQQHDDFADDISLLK

Chain of Cytochrome P450 3A4 (P08684 whole entry): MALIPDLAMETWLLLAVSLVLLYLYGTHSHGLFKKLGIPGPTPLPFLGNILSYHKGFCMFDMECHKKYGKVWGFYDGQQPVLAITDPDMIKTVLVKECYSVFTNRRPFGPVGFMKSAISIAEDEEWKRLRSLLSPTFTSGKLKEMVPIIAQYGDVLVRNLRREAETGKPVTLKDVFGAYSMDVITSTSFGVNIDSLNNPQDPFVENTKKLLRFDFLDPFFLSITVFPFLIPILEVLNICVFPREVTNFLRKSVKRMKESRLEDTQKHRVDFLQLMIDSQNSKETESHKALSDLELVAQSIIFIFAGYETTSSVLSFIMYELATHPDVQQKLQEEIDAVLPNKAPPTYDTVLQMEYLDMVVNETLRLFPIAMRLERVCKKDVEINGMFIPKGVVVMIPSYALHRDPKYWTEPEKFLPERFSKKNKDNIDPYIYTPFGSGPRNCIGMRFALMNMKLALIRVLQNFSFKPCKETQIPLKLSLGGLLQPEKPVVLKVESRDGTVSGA

`C[C@]1(c2cc(NC(=O)c3ccc(C#N)cn3)ccc2F)N=C(N)CO[C@H]1C(F)(F)F` showed a pIC50 [1] of under 4.52, an LOAEL [2] of 11500 ng/mL and an NOAEL [2] of 5235 ng/mL. The fLOAEL [2] was 10.1 µM, the fNOAEL [2] was 4.6 µM and the Cmax at 1 month [3] was 1490 ng/mL. For the same molecule, the Activity [4] was “Non-Toxic”, the Activity [5] was 9% and the Activity [6] was “Non-Toxic”. The Activity [7] was “Non-Toxic”, the Cmax at 1 month [8] was 2080 ng/mL and the Cmax [9] was 333 nM. The pIC50 [10] was under 4.52, the Activity [11] was “Non-Toxic” and the metabolised at 0.25 h, 1 µM [12] was 13%. For the same molecule, the Selectivity ratio [13] was 10, the Activity [14] was “Non-Toxic” and the Activity [15] was “Non-Toxic”. The CL [16] was 50%, the Activity [17] was “Toxic” and the Cmax at 1 month [18] was 1970 ng/mL. The Activity [19] was “Non-Toxic”, the fraction unbound at 5 h, 5 µM [20] was 0.03 and the Activity [21] was “Non-Toxic”. For the same molecule, the Activity [22] was “Active”, the Activity [23] was “Non-Toxic” and the t1/2 [24] was 12 h. The selectivity ratio [25] was 50, the Cmax at 1 month [26] was 2720 ng/mL and the clearance [27] was 47 mL/min/kg. For the same molecule, the NOAEL at 1 month [28] was 70 mg/kg/day, the Activity [29] was “Non-Toxic” and the AUC at 24 h [30] was 23100 ng·h/mL. It also gave a CL [31] of 25%, a selectivity ratio [32] of 71 and an inhibition at 5 min, 3 µM [33] of 22%. For the same molecule, the Cmax [34] was 1090 nM, the Activity [35] was “Non-Toxic” and the clearance [36] was 69 mL/min/kg. It also gave a fraction unbound at 4.5 h, 5 µM [37] of 0.26, a Kp [38] of 169 and a pIC50 [39] of 7.65.
